# Legend:
# [1] = system: S91/I3 (mouse melanoma); experiment: Cytotoxicity in the dark, resazurin assay; assay type: cell-based; settings: S91I3, incubation 40 h in the dark; read-out: IC50 dark toxicity
# Experimental: (§1) The cell lines employed in laser irradiation were the HT-29 (human colon carcinoma), PC-3 (human prostate carcinoma), SW2 (human small cell lung cancer), A-549 (human non-small cell lung cancer). S91/I3 (mouse melanoma) and CT26 (mouse colon carcinoma). They were used both for cytotoxicity and photocytotoxicity experiments. PC-3. SW2 and S91113 cells were cultured in RPMI-1640 medium (Sigma-Aldrich, Steinheim, Germany) and HT-29, A-549 and CT26 cells were cultured in Dulbecco's Modified Eagle Medium (DMEM) (Cambrex Bioscience, Verviers, Belgium). Both cell culture mediums were supplemented with 10% heat-inactivated Fetal Bovine Serum (FBS) (Cambrex Bioscience, Verviers, Belgium) and 100 IU/ml penicillin-100 μg/ml streptomycin (Cambrex Bioscience, Verviers, Belgium). The DMEM medium used for CT26 cells was also supplemented with HEPES 10 mM. Cell lines were maintained in 75 cm^2 flasks (Orange Scientific, Braine-l'Alleud, Belgium) at 37° C. in humidified atmosphere with 5% CO2. For the in vitro studies, cells at 85-90% confluence, were detached with Trypsin-Versene-EDTA solution (Cambrex Bioscience, Verviers, Belgium), counted and seeded in flat-bottom 96-well plates at the desired densities.
# (§2) Cell viability assay. In the end of the experiences cell viability was evaluated by the resazurin reduction assay. Briefly, resazurin (Sigma-Aldrich, Steinhelm, Germany) stock solution (0.1 mg/ml in phosphate buffer saline (PBS) pH 7.4) was diluted 10% in culture medium without FBS or antibiotics and 200 μl were added to the cells in each well. Plates were incubated for 3-4 h at 37° C. The absorbance values of each well were measured at 540 nm and 630 nm using a microplate reader Multiskan Ex (Thermo-Electron Corporation, Vartaa, Finland).
# (§3) Cytotoxicity. Cells were seeded in flat-bottom 96-well plates (Orange Scientific, Braine-l'Alleud, Belgium) in 100 μl of culture medium and were allowed to adhere overnight. The photosensitizer was added to the cells (diluted in 100 μl culture medium) at final concentrations between 0.01 and 1 mM. Each concentration was tested in quadruplicate. The incubation periods in the dark at 37° C. were two times the doubling time for the tested cell line. After the incubation the cell viability was evaluated. In parallel control experiments, cells were incubated without the drug. Cytotoxicity was quantified by expressing cell death relatively to untreated cells (% of control cells). The results were plotted as dose response curves (% of cell death as a function of the concentration of the DRUG), which allow the determination of the concentration that inhibit 50% of cell growth (IC50).
# [2] = system: SW2 (human small cell lung cancer); experiment: Cytotoxicity in the dark, resazurin assay; assay type: cell-based; settings: SW2, incubation 48 h in the dark; read-out: IC50 dark toxicity
# Experimental: as §1, §2, §3
# [3] = system: HT-29 (human colon carcinoma); experiment: Cytotoxicity in the dark, resazurin assay; assay type: cell-based; settings: HT-29, dark
# Experimental: as §1, §2, §3
# [4] = system: CT26 mouse colon carcinoma; experiment: PDT of implanted CT26 tumors; assay type: in vivo, Balb/C mice; settings: 10 mg/kg i.p. in PEG400, 24 h post-injection, 748 nm, 132 J/cm^2
# Excerpt: The other mice were Balb/C weighing 20-25 g, from the animal breeding facility of Charles River Laboratories (Barcelona). The mice were kept on a standard laboratory diet with free access to drinking water. The use of such animals for experimental purposes was approved by the Board of Centro de Neurociências e Biologia Celular (Coimbra).
# The tumors grew to reach 5 mm in diameter in about one week after the implantation. No spontaneous necrosis was observed. The treatment was initiated when the tumor attained 5 mm in diameter in each animal. The day the tumors reached the treatment size, the mice were injected via i.p. with a dose of 10 mg/kg of Luzitin-FMet in PEG400. At 24 h post-injection, four mice were anesthetized with ketamine and xylazine, and treated with the Hamamatsu 748 nm diode laser described before, at a fluence rate of 100 mW/cm^2 for 22 minutes (total fluence of 132 J/cm^2). Four other mice were not treated and served as control. The mice were checked daily, the tumors were measured using two orthogonal measurements L and W (perpendicular to L) and the volumes were calculated using the formula V=L×W^2/2 and recorded.
# [5] = system: S91I3 (mouse melanoma); experiment: Cell photosensitization, 748 nm diode laser, resazurin; assay type: cell-based; settings: 6 J/cm^2 diode laser irradiation at 28.5 mW
# Experimental: as §1, with “The DMEM medium used for CT26 cells was also supplemented with HEPES 10 mM. Cell lines were maintained in 75 cm^2 flasks (Orange Scientific, Braine-l'Alleud, Belgium) at 37° C. in humidified atmosphere with 5% CO2.” left out
# (§4) Cell viability assay. In the end of the experiences cell viability was evaluated by the resazurin reduction assay. […] The absorbance values of each well were measured at 540 nm and 630 nm using a microplate reader Multiskan Ex (Thermo-Electron Corporation, Vartaa, Finland).
# Cell photosensitization. […] Cell viability was evaluated approximately 24 h after the irradiation.
# [6] = system: CT26 (mouse colon carcinoma); experiment: Cytotoxicity in the dark, resazurin assay; assay type: cell-based
# Experimental: The cell lines employed in laser irradiation were the HT-29 (human colon carcinoma), PC-3 (human prostate carcinoma), SW2 (human small cell lung cancer), A-549 (human non-small cell lung cancer). S91/I3 (mouse melanoma) and CT26 (mouse colon carcinoma). They were used both for cytotoxicity and photocytotoxicity experiments. PC-3. SW2 and S91113 cells were cultured in RPMI-1640 medium (Sigma-Aldrich, Steinheim, Germany) and HT-29, A-549 and CT26 cells were cultured in Dulbecco's Modified Eagle Medium (DMEM) (Cambrex Bioscience, Verviers, Belgium). […] For the in vitro studies, cells at 85-90% confluence, were detached with Trypsin-Versene-EDTA solution (Cambrex Bioscience, Verviers, Belgium), counted and seeded in flat-bottom 96-well plates at the desired densities.
# as §4
# Cytotoxicity. […] After the incubation the cell viability was evaluated. […] Cytotoxicity was quantified by expressing cell death relatively to untreated cells (% of control cells). […]
# [7] = system: S91 Cloudman melanoma; experiment: PDT of implanted S91 tumors; assay type: in vivo, DBA/2 mice
# Excerpt: The mice used in the present study were form two sources. Dark toxicity, biodistribution and farmacokinetic studies employed DBA/2 mice, weighing 20-30 g, from the animal breeding facility at the Faculty of Biochemistry, Biophysics and Biotechnology, Jagiellonian University, Krakow. The mice were kept on a standard laboratory diet with free access to drinking water. The use of such animals for experimental purposes was approved by the Jagiellonian University Committee for Ethics of Experiments on Animals (decision No. 384/99). Such mice were also employed in PDT.
# The tumors grew to reach 5 mm in about one week after the implantation. No spontaneous necrosis was observed. The treatment was initiated when the tumor attained 5 mm in diameter in each animal. The day the tumors reached the treatment size, the mice were injected via i.p. with a dose of 10 mg/kg of Luzitin-C12Et in PEG400. At 24 h post-injection, the mice were anesthetized with ketamine and xylazine, and restrained in plastic holders, then treated with different light doses with the Hamamatsu 748 nm diode laser described before. […] The mice were checked daily, and the size of the tumors was measured and recorded.
smiles,measurement,setting,value
"O=S(=O)(O)c1ccc(Cl)c(-c2c3nc(c(-c4cc(S(=O)(=O)O)ccc4Cl)c4ccc([nH]4)c(-c4cc(S(=O)(=O)O)ccc4Cl)c4nc(c(-c5cc(S(=O)(=O)O)ccc5Cl)c5ccc2[nH]5)CC4)CC3)c1 [Luzitin-Cl, 5,10,15,20-tetrakis(2-chloro-5-sulfonylphenyl)bacteriochlorin]",IC50,[1],500 µM
same,IC50,[2],400 µM
"CNS(=O)(=O)c1ccc(F)c(-c2c3nc(c(-c4cc(S(=O)(=O)NC)ccc4F)c4ccc([nH]4)c(-c4cc(S(=O)(=O)NC)ccc4F)c4nc(c(-c5cc(S(=O)(=O)NC)ccc5F)c5ccc2[nH]5)CC4)CC3)c1 [Luzitin-FMet, 5,10,15,20-tetrakis(2-fluoro-5-N-methylsulfamoylphenyl)bacteriochlorin]",highest concentration that causes relatively no effect in viability in the dark,[3],50 µM
same,tumor size after PDT vs non-irradiated controls,[4],smaller than the average size of the control animals and in one case the tumor completely disappeared
"O=S(=O)(O)c1ccc(Cl)c(-c2c3nc(c(-c4c(Cl)ccc(S(=O)(=O)O)c4Cl)c4ccc([nH]4)c(-c4c(Cl)ccc(S(=O)(=O)O)c4Cl)c4nc(c(-c5c(Cl)ccc(S(=O)(=O)O)c5Cl)c5ccc2[nH]5)CC4)CC3)c1Cl [Luzitin-Cl2, 5,10,15,20-tetrakis(2,6-dichloro-3-sulfonylphenyl)bacteriochlorin]",concentration of sensitizer required to kill 90% of cells (LD90),[5],40 µM
"CCNS(=O)(=O)c1ccc(Cl)c(-c2c3nc(c(-c4c(Cl)ccc(S(=O)(=O)NCC)c4Cl)c4ccc([nH]4)c(-c4c(Cl)ccc(S(=O)(=O)NCC)c4Cl)c4nc(c(-c5c(Cl)ccc(S(=O)(=O)NCC)c5Cl)c5ccc2[nH]5)CC4)CC3)c1Cl [Luzitin-Cl2Et, 5,10,15,20-tetrakis(2,6-dichloro-3-N-ethylsulfamoylphenyl)bacteriochlorin]",highest concentration that causes relatively no effect in viability in the dark,[6],50 µM
same,tumor response after PDT,"[7]; 10 mg/kg i.p. in PEG400, 24 h post-injection, 748 nm laser, single session",long-lasting tumor regression
same,necrosis of irradiated tumor area,[7]; within minutes of the irradiation,evident signals of necroses

# From patent publication US9670217B2, “Process for preparing chlorins and their pharmaceutical uses” (UNIVERSIDADE DE COIMBRA, priority 2008, dated 2017)
